Molecules are shown by their SMILES. Activity calls are given as the source filed them. No cut-off for these calls is given here. A value given as a limit tells only on which side of the number the result lay.

In experiment [1] the test system is Mus musculus. The experiment in a line: Antiinflammatory activity in TPA induced BALB/c mouse ear edema model assessed as decrease in weight of ear punches at 0.75 uM administered topically for 6 mins prior to TPA challenge measured after 6 hrs relative to control. Type of experiment: functional. The arrangement: scale not given: the % may be the effect or the level left.

For experiment [2], the system named is Mus musculus. Put plainly: Decrease in TPA induced TNF-alpha levels in TPA induced BALB/c mouse ear edema model administered topically for 6 mins prior to TPA challenge measured after 6 hrs by immunohistochemical analysis. Type of experiment: functional, organism-based.
In experiment [3] the test system is Mus musculus. The experiment in a line: In vivo inhibition of TPA induced p65 translocation form cytoplasm to nucleus in TPA induced BALB/c mouse ear edema model administered topically for 6 mins prior to TPA challenge measured after 6 hrs by immunohistochemical analysis. The format is functional, organism-based.
Experiment [4] has as its system Mus musculus. Put plainly: In vivo inhibition of TPA induced IKK activity in TPA induced BALB/c mouse ear edema model administered topically for 6 mins prior to TPA challenge measured after 6 hrs by immunohistochemical analysis. The format is functional, organism-based.
The test system of experiment [5] is Mus musculus. Put plainly: In vivo inhibition of TPA induced I-kappa-B-alpha phosphorylation in TPA induced BALB/c mouse ear edema model administered topically for 6 mins prior to TPA challenge measured after 6 hrs by immunohistochemical analysis. The format is functional, organism-based.
Experiment [6] has as its system Mus musculus. The experiment in a line: Antiinflammatory activity in TPA induced BALB/c mouse ear edema model assessed as decrease in inflammatory cell infiltration level administered topically for 6 mins prior to TPA challenge measured after 6 hrs by Hematoxylin and Eosin staining based microscopy. Type of experiment: functional, organism-based.
The subject of experiment [7] is Mus musculus. Put plainly: Decrease in TPA induced IL-1beta levels in TPA induced BALB/c mouse ear edema model administered topically for 6 mins prior to TPA challenge measured after 6 hrs by immunohistochemical analysis. The format is functional, organism-based.
Experiment [8] concerns Mus musculus. The experiment in a line: Decrease in nuclear level of phosphorylated p65 in TPA induced BALB/c mouse ear edema model administered topically for 6 mins prior to TPA challenge measured after 6 hrs by immunohistochemical analysis. Type of experiment: functional, organism-based.
For experiment [9], the system named is Mus musculus. The experiment in a line: Decrease in TPA induced IL6 levels in TPA induced BALB/c mouse ear edema model administered topically for 6 mins prior to TPA challenge measured after 6 hrs by immunohistochemical analysis. The format is functional, organism-based.
Experiment [10] relates to Mus musculus. The experiment in a line: In vivo inhibition of TPA induced NF-kappa-B transcriptional activity in TPA induced BALB/c mouse ear edema model administered topically for 6 mins prior to TPA challenge measured after 6 hrs by immunohistochemical analysis. The format is functional, organism-based.
The subject of experiment [11] is Mus musculus. Put plainly: Antiinflammatory activity in TPA induced BALB/c mouse ear edema model assessed as morphological alterations administered topically for 6 mins prior to TPA challenge measured after 6 hrs by Hematoxylin and Eosin staining based microscopy. Type of experiment: functional, organism-based.
Experiment [12] relates to Mus musculus. The experiment in a line: Antiinflammatory activity in TPA induced BALB/c mouse ear edema model assessed as decrease in weight of ear punches administered topically for 6 mins prior to TPA challenge measured after 6 hrs relative to control. The arrangement: concentration or dose not given beside the values; scale not given: the % may be the effect or the level left. The format is functional.

Experiment [13] deals with Mus musculus. Put plainly: Antiinflammatory activity in TPA induced BALB/c mouse ear edema model assessed as decrease in weight of ear punches at 0.325 uM administered topically for 6 mins prior to TPA challenge measured after 6 hrs relative to control. The format is functional. More on the design: scale not given: the % may be the effect or the level left.
Experiment [14] deals with Mus musculus. Put plainly: Antiinflammatory activity in TPA induced BALB/c mouse ear edema model assessed as decrease in weight of ear punches compound co-treated with ketoprofen at 1:1 compound to ketoprofen ratio administered topically for 6 mins prior to TPA challenge measured after 6 hrs relative to control. The format is functional. The arrangement: scale not given: the % may be the effect or the level left.

Experiment [15] concerns Mus musculus. Put plainly: Antiinflammatory activity in TPA induced BALB/c mouse ear edema model assessed as decrease in weight of ear punches at 0.1 uM administered topically for 6 mins prior to TPA challenge measured after 6 hrs relative to control. The format is functional. More on the design: scale not given: the % may be the effect or the level left.
Experiment [16] relates to Mus musculus. Put plainly: Antiinflammatory activity in TPA induced BALB/c mouse ear edema model assessed as decrease in weight of ear punches compound co-treated with naproxen at 1:2 compound to naproxen ratio administered topically for 6 mins prior to TPA challenge measured after 6 hrs relative to control. Type of experiment: functional. More on the design: scale not given: the % may be the effect or the level left.

Experiment [17] deals with Mus musculus. The experiment in a line: Antiinflammatory activity in TPA induced BALB/c mouse ear edema model assessed as decrease in weight of ear punches compound co-treated with diclofenac at 1:1 compound to diclofenac ratio administered topically for 6 mins prior to TPA challenge measured after 6 hrs relative to control. Type of experiment: functional. More on the design: scale not given: the % may be the effect or the level left.

The test system of experiment [18] is Mus musculus. The experiment in a line: Antiinflammatory activity in TPA induced BALB/c mouse ear edema model assessed as decrease in weight of ear punches compound co-treated with naproxen at 1:1 compound to naproxen ratio administered topically for 6 mins prior to TPA challenge measured after 6 hrs relative to control. Type of experiment: functional. The arrangement: scale not given: the % may be the effect or the level left.

The test system of experiment [19] is Mus musculus. The experiment in a line: Antiinflammatory activity in TPA induced BALB/c mouse ear edema model assessed as decrease in weight of ear punches at 1.5 uM administered topically for 6 mins prior to TPA challenge measured after 6 hrs relative to control. More on the design: scale not given: the % may be the effect or the level left. The format is functional.

Experiment [20] has as its system Mus musculus. Put plainly: Antiinflammatory activity in TPA induced BALB/c mouse ear edema model assessed as decrease in weight of ear punches compound co-treated with ketoprofen at 1:2 compound to ketoprofen ratio administered topically for 6 mins prior to TPA challenge measured after 6 hrs relative to control. The format is functional. More on the design: scale not given: the % may be the effect or the level left.

The test system of experiment [21] is Mus musculus. The experiment in a line: Antiinflammatory activity in TPA induced BALB/c mouse ear edema model assessed as decrease in weight of ear punches compound co-treated with flufenamic acid at 1:2 compound to flufenamic acid ratio administered topically for 6 mins prior to TPA challenge measured after 6 hrs relative to control. The format is functional. The arrangement: scale not given: the % may be the effect or the level left.

The test system of experiment [22] is Mus musculus. Put plainly: Antiinflammatory activity in TPA induced BALB/c mouse ear edema model assessed as decrease in weight of ear punches at 3 uM administered topically for 6 mins prior to TPA challenge measured after 6 hrs relative to control. The arrangement: scale not given: the % may be the effect or the level left. Type of experiment: functional.
Experiment [23] deals with Mus musculus. The experiment in a line: Antiinflammatory activity in TPA induced BALB/c mouse ear edema model assessed as decrease in weight of ear punches compound co-treated with diflunisal at 1:1 compound to diflunisal ratio administered topically for 6 mins prior to TPA challenge measured after 6 hrs relative to control. Type of experiment: functional. More on the design: scale not given: the % may be the effect or the level left.

Experiment [24] has as its system Mus musculus. The experiment in a line: Antiinflammatory activity in TPA induced BALB/c mouse ear edema model assessed as decrease in inflammatory cell infiltration level compound cotreated with ketoprofen at 1:1 compound to ketoprofen ratio administered topically for 6 mins prior to TPA challenge measured after 6 hrs by Hematoxylin and Eosin staining based microscopy. The format is functional, organism-based.

For experiment [25], the system named is Mus musculus. The experiment in a line: Antiinflammatory activity in TPA induced BALB/c mouse ear edema model assessed as decrease in weight of ear punches compound co-treated with flufenamic acid at 1:1 compound to flufenamic acid ratio administered topically for 6 mins prior to TPA challenge measured after 6 hrs relative to control. The format is functional. More on the design: scale not given: the % may be the effect or the level left.

`C=CCc1ccc(OC(=O)c2ccccc2Nc2cccc(C(F)(F)F)c2)c(-c2cc(CC=C)ccc2OC(=O)c2ccccc2Nc2cccc(C(F)(F)F)c2)c1`: the Activity entry in experiment [1] was “<=90%”.

As to `C=CCc1ccc(O)c(-c2cc(CC=C)ccc2OC(=O)c2cc(-c3ccc(F)cc3F)ccc2O)c1`, in experiment [1], the Activity result was “<=90%”.

As for `C=CCc1ccc(OC(=O)C(C)c2cccc(C(=O)c3ccccc3)c2)c(-c2cc(CC=C)ccc2OC(=O)C(C)c2cccc(C(=O)c3ccccc3)c2)c1` (stereo unspecified), the Activity result in experiment [1] is “<=90%”.

On to `C=CCc1ccc(O)c(-c2cc(CC=C)ccc2OC(=O)c2ccccc2Nc2cccc(C(F)(F)F)c2)c1`, for which the Activity entry in [1] was “<=90%”.

For the compound `C=CCc1ccc(O)c(-c2cc(CC=C)ccc2OC(=O)C(C)c2cccc(C(=O)c3ccccc3)c2)c1` (stereo unspecified), the outcome in [2], in experiment [6], in experiment [7], in experiment [8], in experiment [9] and in experiment [11] was Active. The inhibition result in experiment [3], in experiment [4], in [5] and in experiment [10] was “Active” in each case. Also, the Activity result in experiment [1] is “<=90%”.

Take `C=CCc1ccc(OC(=O)[C@@H](C)c2ccc3cc(OC)ccc3c2)c(-c2cc(CC=C)ccc2OC(=O)[C@@H](C)c2ccc3cc(OC)ccc3c2)c1`: the Activity entry in [1] is “<=90%”.

`C=CCc1ccc(O)c(-c2cc(CC=C)ccc2OC(=O)[C@@H](C)c2ccc3cc(OC)ccc3c2)c1`: in experiment [1], the Activity entry was “<=90%”.

Regarding `C=CCc1ccc(O)c(-c2cc(CC=C)ccc2OC(=O)Cc2ccccc2Nc2c(Cl)cccc2Cl)c1`, in [1], the Activity result is reported as “<=90%”.

Turning to `C=CCc1ccc(OC(=O)CC2(CC)OCCc3c2[nH]c2c(CC)cccc32)c(-c2cc(CC=C)ccc2OC(=O)CC2(CC)OCCc3c2[nH]c2c(CC)cccc32)c1` (stereo unspecified), the result in experiment [1] was inactive.

In the case of `C=CCc1ccc(OC(=O)Cc2ccccc2Nc2c(Cl)cccc2Cl)c(-c2cc(CC=C)ccc2OC(=O)Cc2ccccc2Nc2c(Cl)cccc2Cl)c1`, the result in experiment [1] was inactive.

As for `C=CCc1ccc(OC(=O)c2cc(-c3ccc(F)cc3F)ccc2O)c(-c2cc(CC=C)ccc2OC(=O)c2cc(-c3ccc(F)cc3F)ccc2O)c1`, the outcome in experiment [1] was inactive.

`C=CCc1ccc(OC(=O)c2ccccc2Nc2cccc(C)c2C)c(-c2cc(CC=C)ccc2OC(=O)c2ccccc2Nc2cccc(C)c2C)c1`: the outcome in experiment [1] was inactive.

In the case of `C=CCc1ccc(OC(=O)c2ccccc2O)c(-c2cc(CC=C)ccc2OC(=O)c2ccccc2O)c1`, the outcome in experiment [1] was inactive.

On to `O=C(O)Cc1ccccc1Nc1c(Cl)cccc1Cl` [DICLOFENAC], for which, in [12], the Activity was determined as 78.3%.

As to `O=C(O)c1cc(-c2ccc(F)cc2F)ccc1O` [DIFLUNISAL], the Activity in [12] was determined as 80.5%.

As for `O=C(O)c1ccccc1Nc1cccc(C(F)(F)F)c1` [FLUFENAMIC ACID], the Activity in experiment [12] is 75.8%.

Turning to `CC(C(=O)O)c1cccc(C(=O)c2ccccc2)c1` (stereo unspecified) [KETOPROFEN], the outcome in experiment [6] was Active. Further, the Activity in experiment [12] was found to be 10.9%.

Regarding `C=CCc1ccc(O)c(-c2cc(CC=C)ccc2O)c1` [MAGNOLOL], the Activity in experiment [13] worked out at 16.7%; in experiment [14] it was 16.6%; in experiment [15] it was 8.3%; in [16], 92.8%; in experiment [17], 87.9%; in experiment [18] it was 40.2%. Further, the Activity was 91.7% in [19]; 72.7% in [20]; 58.3% in experiment [1]; 54.2% in [21]; 96.7% in [22]; “Dose-dependent effect” in [12]. For the same compound, the Activity in [12] (record 2) was determined as 52.2%; in experiment [23], 94.9%; in [25] it was 70.4%. Further, the result in experiment [6] and in experiment [24] was Active.

For `COc1ccc2cc([C@H](C)C(=O)O)ccc2c1` [NAPROXEN], in experiment [12], the Activity was 46%.

(Values after ChEMBL document CHEMBL3769337, “Inspired by magnolol: design of NSAID-based compounds with excellent anti-inflammatory effects” (2015).)
